Laboratory results taken from patent US12616676B2, “Preparation method and use of modified hydrophobic excipient” (ZHEJIANG ZHIDA PHARMACEUTICAL CO., LTD., priority 2019, dated 2026).
Like-named read-outs stand apart in the source and are kept apart here.

Assay: solubility of paclitaxel in olive oil, castor oil and hydrophobic excipients (crystal formation after drying)
Assay type: physicochemical
Protocol: The specific experimental method was as follows. […] The chloroform solution was mixed with 0.5 ml of chloroform, from which 0.5 ml of diluent was taken and two-fold serial dilution was performed by using chloroform. Then 0.5 ml of a chloroform solution of paclitaxel (10 mg/ml) was added to the above-mentioned sample after the two-fold serial dilution, and then left in a hood to be naturally volatilized overnight. Crystal formation in the dried sample was observed and recorded.

Compound: CCCCCCCC/C=C\CCCCCCCCNC(=O)CC[C@@H](C)[C@H]1CC[C@H]2[C@@H]3[C@H](OC(=O)CNC(=O)[C@H](CCCCNC(=O)OC(C)(C)C)NC(=O)OCC4c5ccccc5-c5ccccc54)C[C@@H]4C[C@H](OC(=O)CNC(=O)[C@H](CCCCNC(=O)OC(C)(C)C)NC(=O)OCC5c6ccccc6-c6ccccc65)CC[C@]4(C)[C@H]3C[C@H](OC(=O)CNC(=O)[C@H](CCCCNC(=O)OC(C)(C)C)NC(=O)OCC3c4ccccc4-c4ccccc43)[C@]12C [Example 4]
- solubility of paclitaxel compared with olive oil and castor oil (data comparison in table 1): greater than that in olive oil and castor oil
- solubility of paclitaxel (crystal formation in the dried sample) (hydrophobic excipient 0.98 mg, 0.5 ml chloroform solution of paclitaxel (10 mg/ml), volatilized overnight): +
- solubility of paclitaxel (crystal formation in the dried sample) (hydrophobic excipient 1.95 mg, 0.5 ml chloroform solution of paclitaxel (10 mg/ml), volatilized overnight): +
- solubility of paclitaxel (crystal formation in the dried sample) (hydrophobic excipient 3.90 mg, 0.5 ml chloroform solution of paclitaxel (10 mg/ml), volatilized overnight): +
- solubility of paclitaxel (crystal formation in the dried sample) (hydrophobic excipient 7.81 mg, 0.5 ml chloroform solution of paclitaxel (10 mg/ml), volatilized overnight): +/−
- solubility of paclitaxel (crystal formation in the dried sample) (hydrophobic excipient 15.65 mg, 0.5 ml chloroform solution of paclitaxel (10 mg/ml), volatilized overnight): −
- solubility of paclitaxel (crystal formation in the dried sample) (hydrophobic excipient 31.30 mg, 0.5 ml chloroform solution of paclitaxel (10 mg/ml), volatilized overnight): −
- solubility of paclitaxel (crystal formation in the dried sample) (hydrophobic excipient 62.50 mg, 0.5 ml chloroform solution of paclitaxel (10 mg/ml), volatilized overnight): −
- solubility of paclitaxel (crystal formation in the dried sample) (hydrophobic excipient 125.00 mg, 0.5 ml chloroform solution of paclitaxel (10 mg/ml), volatilized overnight): −
- solubility of paclitaxel (crystal formation in the dried sample) (hydrophobic excipient 250.00 mg, 0.5 ml chloroform solution of paclitaxel (10 mg/ml), volatilized overnight): −

Compound: castor oil
- solubility of paclitaxel (crystal formation in the dried sample): +
